From patent US12565501B2, “Muscarinic acetylcholine M1 receptor antagonists” (Contineum Therapeutics, Inc., priority 2019, dated 2026) come the findings set out here.

Each structure is given as a SMILES string. Where a name gives a salt, the structure may show the parent alone.

One test concerns the target T1, human M1 receptor (Homo sapiens, UniProt P11229).
T1 sequence (P11229 1-460): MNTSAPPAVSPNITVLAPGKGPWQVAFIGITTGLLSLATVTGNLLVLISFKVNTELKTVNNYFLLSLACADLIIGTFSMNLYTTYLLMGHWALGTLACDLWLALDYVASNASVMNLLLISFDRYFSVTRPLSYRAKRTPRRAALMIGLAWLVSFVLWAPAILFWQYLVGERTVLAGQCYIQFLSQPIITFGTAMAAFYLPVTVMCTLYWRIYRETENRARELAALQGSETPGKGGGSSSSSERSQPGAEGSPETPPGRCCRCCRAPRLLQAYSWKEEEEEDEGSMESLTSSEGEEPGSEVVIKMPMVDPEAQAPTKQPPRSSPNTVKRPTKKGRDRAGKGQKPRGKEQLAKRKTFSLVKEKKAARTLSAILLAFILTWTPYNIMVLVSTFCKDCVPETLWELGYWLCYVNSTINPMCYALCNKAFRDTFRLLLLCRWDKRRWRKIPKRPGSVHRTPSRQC
Briefly: In vitro functional assay of muscarinic acetylcholine receptor activity (aequorin calcium flux, reversal of EC80 acetylcholine response). Type of test: cell-based. As to conditions: CHO-K1 cells stably expressing human M1 receptor with aequorin; acetylcholine at EC80; calcium flux (luminescence); read-out: M1 IC50. In short, it runs like this: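 CHO-K1 cells expressing human M1 and aequorin, loaded with 5 μM coelenterazine for 4 h, preincubated with compound 30 min at room temperature, then challenged with EC80 acetylcholine.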
A general note: A change in cytosolic calcium serves as a functional read-out for many receptors and channels.
Broadly, the IC50 is the concentration needed to halve the response being measured. Consider `N#Cc1ccc(N2C3CCC2CN(C(=O)CCOC2(c4ccc(F)c(F)c4)CCC2)C3)nc1` [Example 303, 6-(3-(3-(1-(3,4-difluorophenyl)cyclobutoxy)propanoyl)-3,8-diazabicyclo[3.2.1]octan-8-yl)nicotinonitrile], for which the IC50 was less than 10 nM.
As for `CC(OCC(=O)N1CC2CCC(C1)N2c1ccc(C#N)cn1)c1cccc2nccnc12` (racemic) [Example 193, 6-(3-(2-(1-(quinoxalin-5-yl)ethoxy)acetyl)-3,8-diazabicyclo[3.2.1]octan-8-yl)nicotinonitrile], the IC50 is less than 10 nM.
Turning to `COc1ccccc1[C@H](C)NCC(=O)N1CC2CCC(C1)N2c1ccc(C#N)cn1` [Example 65, 6-(3-(((S)-1-(2-methoxyphenyl)ethyl)glycyl)-3,8-diazabicyclo[3.2.1]octan-8-yl)nicotinonitrile], the IC50 is less than 10 nM.
Take `N#Cc1ccc(N2C3CCC2CN(C(=O)COC2(c4cc(F)cc(Br)c4)CC2)C3)nc1` [Example 217, 6-(3-(2-(1-(3-bromo-5-fluorophenyl)cyclopropoxy)acetyl)-3,8-diazabicyclo[3.2.1]octan-8-yl)nicotinonitrile]: the IC50 fell in the range of 10 to 100 nM.
Turning to `Cc1noc(C)c1C1(OCC(=O)N2CC3CCC(C2)N3c2ccc(C#N)cn2)CCC1` [Example 265, 6-(3-(2-(1-(3,5-dimethylisoxazol-4-yl)cyclobutoxy)acetyl)-3,8-diazabicyclo[3.2.1]octan-8-yl)nicotinonitrile], the IC50 is less than 10 nM.
Same read-out and setting: with `N#Cc1ccc(N2C3CCC2CN(C(=O)C2CC(O)(c4cccc5ncccc45)C2)C3)nc1` (stereo not drawn) [Example 152, 6-(3-(3-hydroxy-3-(quinolin-5-yl)cyclobutane-1-carbonyl)-3,8-diazabicyclo[3.2.1]octan-8-yl)nicotinonitrile] the figure was 1000 to 10000 nM.
On the same count and under the same terms, with `COc1ncccc1C1(OCC(=O)N2CC3CCC(C2)N3c2ccc(C#N)cn2)CCC1` [Example 254, 6-(3-(2-(1-(2-methoxypyridin-3-yl)cyclobutoxy)acetyl)-3,8-diazabicyclo[3.2.1]octan-8-yl)nicotinonitrile] the figure was less than 10 nM; with `N#Cc1ccc(N2C3CCC2CN(C(=O)COC2CCc4cc(F)ccc42)C3)nc1` (racemic) [Example 184, 6-(3-(2-((5-fluoro-2,3-dihydro-1H-inden-1-yl)oxy)acetyl)-3,8-diazabicyclo[3.2.1]octan-8-yl)nicotinonitrile], 10 to 100 nM; with `CC(c1ccc(F)c(F)c1)N1CC(C(=O)N2CC3CCC(C2)N3c2ccc(C#N)cn2)C1` (racemic) [Example 137, 6-(3-(1-(1-(3,4-difluorophenyl)ethyl)azetidine-3-carbonyl)-3,8-diazabicyclo[3.2.1]octan-8-yl)nicotinonitrile], 100 to 1000 nM.
In the case of `N#Cc1ccc(N2C3CCC2CN(C(=O)COCC2(c4ccc(F)cc4)CC2)C3)nc1` [Example 188, 6-(3-(2-((1-(4-fluorophenyl)cyclopropyl)methoxy)acetyl)-3,8-diazabicyclo[3.2.1]octan-8-yl)nicotinonitrile], the IC50 lay within 1000 to 10000 nM.
Consider `N#Cc1ccc(N2C3CCC2CN(C(=O)COC(c2cccc4ncnn24)C2CC2)C3)nc1` (racemic) [Example 195, 6-(3-(2-([1,2,4]triazolo[1,5-a]pyridin-5-yl(cyclopropyl)methoxy)acetyl)-3,8-diazabicyclo[3.2.1]octan-8-yl)nicotinonitrile], for which the IC50 was in the range of 10 to 100 nM.
On the same count and under the same terms, with `N#Cc1ccc(N2C3CCC2CN(C(=O)COC2(c4ccc(Br)cc4)CC2)C3)nc1` [Example 208, 6-(3-(2-(1-(4-bromophenyl)cyclopropoxy)acetyl)-3,8-diazabicyclo[3.2.1]octan-8-yl)nicotinonitrile] the figure was 100 to 1000 nM; with `C[C@@H](OCC(=O)N1C[C@H]2CC[C@@H](C1)N2c1ccc(C#N)cn1)c1ccccc1` [Example 178, 6-(3-(2-((R)-1-phenylethoxy)acetyl)-3,8-diazabicyclo[3.2.1]octan-8-yl)nicotinonitrile], 100 to 1000 nM.
Still for that read-out and setting: with `N#Cc1ccc(N2C3CCC2CN(C(=O)CNC2(c4cc(F)ccc4F)CC2)C3)nc1` [Example 71, 6-(3-((1-(2,5-difluorophenyl)cyclopropyl)glycyl)-3,8-diazabicyclo[3.2.1]octan-8-yl)nicotinonitrile] the figure was 100 to 1000 nM; with `N#Cc1ccc(N2C3CCC2CN(C(=O)COC2(c4ccccc4F)CCC2)C3)nc1` [Example 236, 6-(3-(2-(1-(2-fluorophenyl)cyclobutoxy)acetyl)-3,8-diazabicyclo[3.2.1]octan-8-yl)nicotinonitrile], 100 to 1000 nM.
Still for that read-out and setting: the value for `N#Cc1ccc(N2C3CCC2CN(C(=O)COC2(c4ccc(F)c(F)c4)COC2)C3)nc1` [Example 241, (3-(2-((3-(3,4-difluorophenyl)oxetan-3-yl)oxy)acetyl)-3,8-diazabicyclo[3.2.1]octan-8-yl)nicotinonitrile] was 1000 to 10000 nM; that for `COc1ccc(C2(NCCC(=O)N3CC4CCC(C3)N4c3ccc(C#N)cn3)CC2)cc1` [Example 17, 6-(3-(3-((1-(4-methoxyphenyl)cyclopropyl)amino)propanoyl)-3,8-diazabicyclo[3.2.1]octan-8-yl)nicotinonitrile] was 100 to 1000 nM.
Regarding `COc1ccnc(C2(OCC(=O)N3CC4CCC(C3)N4c3ccc(C#N)cn3)CCC2)c1` [Example 255, 6-(3-(2-(1-(4-methoxypyridin-2-yl)cyclobutoxy)acetyl)-3,8-diazabicyclo[3.2.1]octan-8-yl)nicotinonitrile], the IC50 is less than 10 nM.
Regarding `[2H]C([2H])([2H])Oc1cc(C(F)(F)/C=C/C(=O)N2CC3CCC(C2)N3c2ccc(C#N)cn2)ccn1` [Example 149, 6-(3-((E)-4,4-difluoro-4-(2-(methoxy-d3)pyridin-4-yl)but-2-enoyl)-3,8-diazabicyclo[3.2.1]octan-8-yl)nicotinonitrile], the IC50 was less than 10 nM.
Turning to `CC(NCC(=O)N1CC2CCC(C1)N2c1ccc(C#N)cn1)c1cccc2ncnn12` (racemic) [Example 54, 6-(3-((1-([1,2,4]triazolo[1,5-a]pyridin-5-yl)ethyl)glycyl)-3,8-diazabicyclo[3.2.1]octan-8-yl)nicotinonitrile], the IC50 lay in the range of 10 to 100 nM.
Still for that read-out and setting: with `N#Cc1ccc(N2C3CCC2CN(C(=O)COCC(F)(F)c2cccn4ncnc24)C3)nc1` [Example 278, 6-(3-(2-(2-([1,2,4]triazolo[1,5-a]pyridin-8-yl)-2,2-difluoroethoxy)acetyl)-3,8-diazabicyclo[3.2.1]octan-8-yl)nicotinonitrile] the figure was less than 10 nM.
On the same count and under the same terms, the value for `N#Cc1ccc(N2C3CCC2CN(C(=O)CCC(F)(F)c2cccc4ncnn24)C3)nc1` [Example 163, 6-(3-(4-([1,2,4]triazolo[1,5-a]pyridin-5-yl)-4,4-difluorobutanoyl)-3,8-diazabicyclo[3.2.1]octan-8-yl)nicotinonitrile] was less than 10 nM.
On the same count and under the same terms, the value for `COc1c(F)ccc(C2(NCC(=O)N3CC4CCC(C3)N4c3ccc(C#N)cn3)CC2)c1F` [Example 112, 6-(3-((1-(2,4-difluoro-3-methoxyphenyl)cyclopropyl)glycyl)-3,8-diazabicyclo[3.2.1]octan-8-yl)nicotinonitrile] was less than 10 nM; that for `CC(OCC(=O)N1CC2CCC(C1)N2c1ccc(C#N)cn1)c1cccc2ncccc12` (racemic) [Example 192, 6-(3-(2-(1-(quinolin-5-yl)ethoxy)acetyl)-3,8-diazabicyclo[3.2.1]octan-8-yl)nicotinonitrile] was less than 10 nM; that for `N#Cc1ccc(N2[C@@H]3CC[C@H]2CN(C(=O)CCNC2(c4ncc(F)cc4F)CC2)C3)nc1` [Example 31, 6-(3-(3-((1-(3,5-difluoropyridin-2-yl)cyclopropyl)amino)propanoyl)-3,8-diazabicyclo[3.2.1]octan-8-yl)nicotinonitrile] was 100 to 1000 nM.
`N#Cc1ccc(N2C3CCC2CN(C(=O)COC2(c4cncc(F)c4)CCCC2)C3)nc1` [Example 268, 6-(3-(2-((1-(5-fluoropyridin-3-yl)cyclopentyl)oxy)acetyl)-3,8-diazabicyclo[3.2.1]octan-8-yl)nicotinonitrile]: the IC50 lay within 10 to 100 nM.
The same measure, in the same setting: the value for `CCOc1cncc(C2(OCC(=O)N3CC4CCC(C3)N4c3ccc(C#N)cn3)CCC2)c1` [Example 259, 6-(3-(2-(1-(5-ethoxypyridin-3-yl)cyclobutoxy)acetyl)-3,8-diazabicyclo[3.2.1]octan-8-yl)nicotinonitrile] was 10 to 100 nM; that for `COc1cccnc1C(F)(F)/C=C/C(=O)N1C[C@H]2CC[C@@H](C1)N2c1ccc(C#N)cn1` [Example 144, 6-(3-((E)-4,4-difluoro-4-(3-methoxypyridin-2-yl)but-2-enoyl)-3,8-diazabicyclo[3.2.1]octan-8-yl)nicotinonitrile] was less than 10 nM.
Take `N#Cc1ccc(N2C3CCC2CN(C(=O)COC(c2ccc(F)c(F)c2)C(F)F)C3)nc1` (racemic) [Example 201, 6-(3-(2-(1-(3,4-difluorophenyl)-2,2-difluoroethoxy)acetyl)-3,8-diazabicyclo[3.2.1]octan-8-yl)nicotinonitrile]: the IC50 was 10 to 100 nM.

The test is the same for the next values; noted with them: M1 IC50, CHO-K1 cells stably expressing human M1 receptor with aequorin; acetylcholine at EC80; calcium flux (luminescence).
As for `N#Cc1ccc(N2C3CCC2CN(C(=O)CCNC2(c4ccc(F)c(C#N)c4)CC2)C3)nc1` [Example 288, 6-(3-(3-((1-(3-cyano-4-fluorophenyl)cyclopropyl)amino)propanoyl)-3,8-diazabicyclo[3.2.1]octan-8-yl)nicotinonitrile formic acid Salt], the IC50 lay in the range of 10 to 100 nM.
